Source: patent publication US6599499B1, “Uses of diterpenoid triepoxides as an anti-proliferative agent” (priority 1999, dated 2003)

Experiments:
HT1080 cells = experiment: Apoptosis by Annexin V and Propidium Iodide staining, HT1080 cells; assay type: cell-based, human; parameters: unit of the concentration uncertain; details: HT1080, 20 h, PG490 pretreatment 4 h then CPT-11 16 h
Description: HT1080 cells were treated as shown and harvested for analysis of apoptosis by Annexin V and Propidium Iodide staining 20 h after treatment. In experiments with a combination of PG490 and CPT-11, cells were pretreated with PG490 for 4 h followed by the addition of CPT-11 for 16 h.

HT1080 tumor cells = experiment: Nude mouse xenograft, established HT1080 tumors; assay type: in vivo, nude mice; details: PG490-88 0.75 mg/kg IP days 0-5 and 7-11, CPT-11 11 mg/kg IV days 1, 5, 9
Description: Mice. […] Nude mouse xenograft model. HT1080 tumor cells were grown in tissue culture flasks and harvested using EDTA and trypsin. Cells were centrifuged and the concentration of viable cells was appropriately adjusted. […] Tumor size was monitored after tumor cell implantation by measuring the width, length and thickness of the tumors and using a formula to calculate the volume. […] Control mice were left untreated. […] Combination therapy mice received both PG490-88 and CPT-11 treatments.

[1] = system: HT-29 human colon cancer cell line tumors; experiment: Nude mouse xenograft, established HT-29 colon cancer tumors; assay type: in vivo, nude mice
Description: HT-29 tumor cells grown in tissue culture were harvested and implanted intradermally on the backs of nude mice. Tumor size was monitored by measuring the dimensions of each tumor and calculating tumor volume with a formula. […] PG490-88 treatment at 0.25 mg/kg was administered daily i.p. 5 days per week for 2 weeks. Navelbine at 10 mg/kg was given i.v. on days 0 and 7. Mice in the combination treatment group received PG490-88 i.p. and Navelbine i.v. at the appropriate times. The treatments were given to mice at 100 μl per 10 g of mouse body weight. Tumor dimensions were measured periodically for calculation of tumor volumes. […] The data are presented as mean percent change in tumor volume from day 0 for each treatment group. Toxicity of the treatment was monitored by weighing the mice daily 5 days per week. In FIG. 8, a comparison is provided for tumor volumes on Days 0 and 14. Tumor dimensions were measured periodically for calculation of tumor volumes, and the final determinations were made on day 14.

H23 human tumor cells = details: day 14; PG490-88 0.25 mg/kg/day; taxol 10 mg/kg/day; IP
Description: Cell death reagents and assays. Cell viability was measured by an MTT assay as recently described (Lee et al. (1999) J. Biol. Chem. 274:13451-13455. z-VAD-fluoromethylketone (z-VAD.fmk) was obtained from Alexis Biochemicals, San Diego, Calif. The effect of z-VAD.fmk on cell viability was analyzed by annexin and propidium iodide staining followed by FACS analysis according to the manufacturer's protocol (Clontech Laboratories, Palo Alto, Calif.). The analysis of apoptosis in histologic sections was done by terminal deoxynucleotidyl transferase (TdT)-mediated d-UTP nick end labeling (TUNEL) of slides from paraffin sections of day 3 tumors harvested from the mice 24 h after the second of two daily treatments with PG490-88 or saline. TUNEL staining was done according to the manufacturer's protocol (Boehringer Mannheim, Indianapolis, Ind.) and then the histology slides were counterstained with methyl green. DNA was isolated from cells for analysis of internucleosomal DNA laddering followed by agarose gel electrophoresis and ethidium bromide staining.
Nude mouse xenograft model. Female NCr nude mice were purchased from Taconic, Germantown, N.Y., and were generally 20-24 grams when used. Mice were kept in autoclaved filter-top microisolator cages with autoclaved water and sterile food ad lib. The cages were maintained in an isolator unit providing filtered air (Lab Products, Inc., Maywood, N.J.). Tumor cells were grown and harvested as described above. NCr nude mice were injected intradermally with 5×10^6 tumor cells. In some experiments, treatment was initiated on the day of tumor cell implantation. […] Mice were treated IP daily for 5 days per week.
H23 tumor cells were implanted intradermally in nude mice. When the tumors reached approximately 100 mm^3, daily IP treatment with PG490-88 was initiated. […] The data in FIG. 3 represents the measurement of H23 tumor volume on day 14 after the initiation of treatment. Nude mice bearing xenografts of H23 human tumor cells were treated daily as shown. The data represent the means and the standard errors of the means of the tumor volumes as percent of the day 0 tumor volumes for each animal measured day 3, 6, 10 and 14 days after the initiation of treatment. There were 5 mice per group.

Dx5 cells = details: cited from earlier work

CCc1c2c(nc3ccc(OC(=O)N4CCC(N5CCCCC5)CC4)cc13)-c1cc3c(c(=O)n1C2)COC(=O)[C@]3(O)CC [CPT-11, irinotecan, reference compound]
Apoptotic Cells (%) (HT1080 cells; CPT-11 (10 µM) alone, (10 μM) in combination with PG490 5 ng/ml): 5%
Apoptotic Cells (%) (HT1080 cells; PG490 5 ng/ml, CPT-11 (5 µM) alone, (5 μM) in combination): 0%
TV Mean Day 4 (HT1080 tumor cells): 157
TV Mean Day 7 (HT1080 tumor cells): 209
TV Mean Day 10 (HT1080 tumor cells): 268
TV Mean Day 14 (HT1080 tumor cells): 495
TV Mean Day 0 (HT1080 tumor cells; baseline): 107

CCC1=C[C@@H]2CN(C1)Cc1c([nH]c3ccccc13)[C@@](C(=O)OC)(c1cc3c(cc1OC)N(C)[C@H]1[C@@](O)(C(=O)OC)[C@H](OC(C)=O)[C@]4(CC)C=CCN5CC[C@]31[C@@H]54)C2 [Navelbine, vinorelbine, reference compound]
increase in tumor volume from day 0 by day 14 ([1]; PG490-88 0.25 mg/kg i.p. 5 days per week for 2 weeks, Navelbine 10 mg/kg i.v. days 0 and 7): 343%
Day 0 Tumor Volume (mm^3) Mean ([1]; baseline at grouping, before treatment): 109 mm^3

CC(=O)O[C@H]1C(=O)[C@@]2(C)[C@H]([C@H](OC(=O)c3ccccc3)[C@]3(O)C[C@H](OC(=O)[C@H](O)[C@@H](NC(=O)c4ccccc4)c4ccccc4)C(C)=C1C3(C)C)[C@]1(OC(C)=O)CO[C@@H]1C[C@@H]2O [taxol, reference compound]
tumor volume as % of the vehicle control (H23 human tumor cells): 42%
fold more resistant than the MES-SA parent cell line (Dx5 cells): 1000 fold
